Read-outs that look alike come from different tables or passages of the source.
What was measured:
J774.A1 macrophages [1] = experiment: IL-6 production in J774.A1 macrophages (ELISA); assay type: cell-based, murine; details: J774.A1, 24 hr
Experimental: (§1) Cells were treated for 24 hr with DMSO control, test compound, or LPS and mouse TNF-α or IL-6 and human TNF-α enzyme-linked immunosorbent assay (ELISA) kits (BD Biosciences Pharmigen) were used to detect these cytokines in the cell supernatants. Cytokine concentration was determined by extrapolation from the TNF-α/IL-6 standard curve, according to the manufacturer's protocol.
(§2) For treatments, cells were plated in 96-well microtiter plates at 2×10^5 cells/well (J774.A1, MonoMac6) or 6×10^4 cells/well (human monocyte-derived macrophages) using their respective culture media, except FBS was reduced to 3% (v/v). After incubation overnight (5% CO2, 37° C.), the media were removed and replaced with fresh media containing test compounds.

J774.A1 macrophages [2] = experiment: TNF-α production in J774.A1 macrophages (ELISA); assay type: cell-based, murine; details: for fold induction at 50 µM: Mus musculus, J774.A1, 24 h
murine neutrophils = experiment: Chemotaxis assay, murine neutrophils; assay type: cell-based; details: percent of response induced by 50 nM KC
human neutrophils [3] = experiment: ROS production in human neutrophils (L-012 luminescence); assay type: cell-based; details: Neutrophil, concentration that enhanced ROS production by 50% above background, read-out: ROS Production AC50, Human PMN
Experimental: J774.A1 macrophages were plated at density of 1.5×10^5 cells/well in wells of 96-well flat-bottom white microtiter plates (Corning Incorporated, Costar). After 16 hr (5% CO2, 37° C.), the media was aspirated, and test compounds or vehicle (final DMSO concentration of 1%) were added in fresh media (DMEM without phenol red, supplemented with 3% (v/v) FBS). After 5 min, the media was replaced by HBSS+ containing 4 μM L-012 and 8 μg/ml HRP, and luminescence was monitored for 120 min (2-min intervals) at 37° C. using a Fluoroscan Ascent FL microtiter plate reader (Thermo Electron, Waltham, Mass.). The curve of light intensity (in relative luminescence units) was plotted against time, and the area under the curve was calculated as total luminescence. The percent activation of ROS was calculated as follows: % activation=(sample-DMSO control)/DMSO control×100. The minimal compound concentration that enhanced ROS production by 50% above background control cells (AC50) was determined by graphing the % activation of ROS vs. log [test compound]. Each curve was determined using five to seven compound concentrations. Human neutrophils were plated at density of 5×10^5 cells/well in wells of 96-well flatbottom white microtiter plates, and compounds under investigation or vehicle (final DMSO concentration of 1%) were added. After 5 min, the media was replaced by HBSS+ containing […] L-012, and luminescence was monitored for 120 min (2-min intervals) at 37° C. using a Fluoroscan Ascent FL microtiter plate reader. The results were analysed as described above to determine % activation and AC50 values.

J774.A1 macrophages [4] = experiment: ROS production in J774.A1 macrophages (L-012 luminescence); assay type: cell-based; details: Mus musculus, concentration that enhanced ROS production by 50% above background, read-out: ROS Production AC50, Murine Mφ
Experimental: (§3) Murine macrophage J774.A1 cells were cultured in DMEM supplemented with 10% (v/v) heat-inactivated fetal bovine serum (FBS), 10 mM HEPES, 100 μg/ml streptomycin, and 100 U/ml penicillin. Cells were grown to confluence in sterile tissue culture flasks and gently detached by scraping. Human monocyte/macrophage MonoMac6 cells (DSMZ, Germany) were cultured in RPMI 1640 supplemented with 10% (v/v) FBS, 10 μg/ml bovine insulin, 100 μg/ml streptomycin, and 100 U/ml penicillin. Rat basophilic leukemia (RBL-2H3) cells transfected with human FPR (RBL-FPR) or FPRL1 (RBL-FPRL1) were cultured in DMEM supplemented with 20% (v/v) FBS, 10 mM HEPES, 100 μg/ml streptomycin, and 100 U/ml penicillin, as described previously (Nanamori et al., 2004). Human monocytic THP-1 cells were cultured in RPMI 1640 medium supplemented with 10% (v/v) FBS, 100 μg/ml streptomycin, and 100 U/ml penicillin. All cell cultures were grown at 37° C. in a humidified atmosphere containing 5% CO2. Cell number and viability were assessed microscopically using trypan blue exclusion.
J774.A1 macrophages were plated at density of 1.5×10^5 cells/well in wells of 96-well flat-bottom white microtiter plates (Corning Incorporated, Costar). […] After 5 min, the media was replaced by HBSS+ containing 4 μM L-012 and 8 μg/ml HRP, and luminescence was monitored for 120 min (2-min intervals) at 37° C. using a Fluoroscan Ascent FL microtiter plate reader (Thermo Electron, Waltham, Mass.). The curve of light intensity (in relative luminescence units) was plotted against time, and the area under the curve was calculated as total luminescence. The percent activation of ROS was calculated as follows: % activation=(sample-DMSO control)/DMSO control×100. The minimal compound concentration that enhanced ROS production by 50% above background control cells (AC50) was determined by graphing the % activation of ROS vs. log [test compound]. Each curve was determined using five to seven compound concentrations. […] The results were analysed as described above to determine % activation and AC50 values.

J774.A1 macrophages [5] = experiment: cells; details: Mus musculus, J774.A1, read-out: Ca2+ Mobilization EC50, Murine Mφ
Experimental: Murine macrophage J774.A1 cells were cultured in DMEM supplemented with 10% (v/v) heat-inactivated fetal bovine serum (FBS), 10 mM HEPES, 100 μg/ml streptomycin, and 100 U/ml penicillin. Cells were grown to confluence in sterile tissue culture flasks and gently detached by scraping. […] All cell cultures were grown at 37° C. in a humidified atmosphere containing 5% CO2. Cell number and viability were assessed microscopically using trypan blue exclusion.

human FPR = molecular target: T1, human FPR (Homo sapiens, UniProt P21462); experiment: Ca2+ mobilization in RBL-FPR cells; assay type: cell-based
T1 construct: expressed in transfected cells; host or cells: rat basophilic leukemia RBL-2H3 cells (RBL-FPR)
T1 sequence (P21462 1-350): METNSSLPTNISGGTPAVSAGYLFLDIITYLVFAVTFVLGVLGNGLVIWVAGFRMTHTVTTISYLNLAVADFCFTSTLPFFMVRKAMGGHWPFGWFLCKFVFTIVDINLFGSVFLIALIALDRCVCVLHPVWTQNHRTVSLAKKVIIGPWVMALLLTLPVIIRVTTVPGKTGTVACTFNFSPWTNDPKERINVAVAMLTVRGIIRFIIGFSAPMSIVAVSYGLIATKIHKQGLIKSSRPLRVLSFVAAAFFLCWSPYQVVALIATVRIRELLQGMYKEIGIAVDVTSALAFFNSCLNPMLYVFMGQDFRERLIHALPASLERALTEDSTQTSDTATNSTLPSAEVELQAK

human neutrophils [6] = experiment: Ca2+ mobilization in human neutrophils (FLIPR Calcium 3); details: Neutrophil
human neutrophils [7] = experiment: Chemotaxis assay, human neutrophils; assay type: cell-based; details: percent of response induced by 50 nM IL-8
J774.A1 cells = experiment: Cytotoxicity assay (CellTiter-Glo); assay type: cell-based, murine; details: J774.A1, 24 hr
Experimental: Cytotoxicity was analyzed with a CellTiter-Glo Luminescent Cell Viability Assay Kit (Promega, Inc., Madison, Wis.), according to the manufacturer's protocol. Briefly, J774.A1 cells were cultured at a density of 3×10^4 cells/well with the test compounds for 24 hr at 37° C. and 5% CO2, substrate was added, and luminescence signal in the samples was analyzed with a Fluoroscan Ascent FL.

FPRL1 = molecular target: T2, FPRL1 (Homo sapiens, UniProt P25090); experiment: Ca2+ mobilization in RBL-FPRL1 cells; assay type: cell-based
T2 construct: expressed in transfected cells; host or cells: rat basophilic leukemia RBL-2H3 cells (RBL-FPRL1)
T2 sequence (P25090 1-351): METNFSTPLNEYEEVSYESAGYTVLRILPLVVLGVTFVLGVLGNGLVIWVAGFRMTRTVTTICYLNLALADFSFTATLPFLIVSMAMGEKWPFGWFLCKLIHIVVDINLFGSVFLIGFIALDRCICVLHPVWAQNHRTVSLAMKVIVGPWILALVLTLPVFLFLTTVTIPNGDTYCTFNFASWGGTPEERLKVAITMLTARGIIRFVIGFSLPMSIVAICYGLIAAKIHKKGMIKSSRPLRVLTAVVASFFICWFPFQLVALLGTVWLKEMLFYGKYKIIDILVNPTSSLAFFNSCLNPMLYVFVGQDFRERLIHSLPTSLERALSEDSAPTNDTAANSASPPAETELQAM

[8] = test system: human monocyte-derived macrophages; experiment: TNF-α production in human monocyte-derived macrophages (ELISA); assay type: cell-based; details: 24 hr, various concentrations
Experimental: as §1, §2

[9] = test system: human monocytic cells THP-1; experiment: TNF-α production in THP-1 cells (ELISA); assay type: cell-based; details: 24 hr, various concentrations
Experimental: as §3, with “All cell cultures were grown at 37° C. in a humidified atmosphere containing 5% CO2.” left out
as §1

[10] = test system: murine peritoneal macrophages; experiment: TNF-α production in murine peritoneal macrophages (ELISA); assay type: cell-based; details: 24 hr, various concentrations
Experimental: Bone marrow leukocytes were flushed from tibias and femurs of BALB/c mice with HBSS− supplemented with 0.1% BSA and 1% glucose and the neutrophils were purified on Percoll density gradients, as previously described (Schepetkin et al., 2007). Peritoneal macrophages were isolated from BALB/c mice 4 days after intraperitoneal injection of 1 ml saline containing 100 μg concanavalin A, as described previously (Schepetkin et al., 2005). Peritoneal exudate cells were suspended in RPMI 1640 containing 10% (v/v) FBS with antibiotics (penicillin and streptomycin) and incubated at 37° C. in 100 mm tissue culture dishes for 1 h. Adherent peritoneal macrophages were harvested and cultured with the compounds under investigation for 24 hr at 37° C. and 5% CO2.
as §1

[11] = test system: human MonoMac6 macrophages; experiment: TNF-α production in MonoMac6 cells (ELISA); assay type: cell-based; details: 24 hr, various concentrations
[12] = relative fold of activation compared to vehicle (DMSO) control for 50 μM compound, N.A. = no activity was observed, read-out: TNF-α production
[13] = read-out: Ca2+ Mobilization EC50, Human PMN

Structure (SMILES) | IL-6 production (J774.A1 macrophages [1]) | fold induction at 50 µM (J774.A1 macrophages [2]; [12]) | Chemotaxis (%), Murine PMN (murine neutrophils) | AC50 (human neutrophils [3]) | AC50 (J774.A1 macrophages [4]) | EC50 (J774.A1 macrophages [5]) | EC50 (human neutrophils [6]; [13]) | EC50 (human neutrophils [6]; read-out: [Ca2+]i EC50) | Chemotaxis (%), Human PMN (human neutrophils [7]) | other results
COc1cc(/C=N\NC(=O)c2ccc3c(c2)OCO3)ccc1OCc1ccccc1 [Compound 6] | failed to induce macrophage IL-6 production | 5 to 8 | 174.8 ± 9.2% | 38.6 ± 3.3 µM | 26.9 ± 3.9 µM | 4.2 ± 0.8 µM | 0.63 ± 0.39 µM | 0.63 µM | 98.0 ± 3.4% | TNF-α production, primary screening of agonists AG 1-26 (J774.A1 macrophages [2]; murine J774.A1 macrophages): induced modest levels of TNF-α production; EC50 (human FPR): 6.6 µM
O=C(N/N=C/c1ccc(-c2cccc(Br)c2)o1)c1cccnc1 [Compound 1] | induced secretion of IL-6 | 40 to 50 | 68.9 ± 7.8% | 0.2 ± 0.02 µM | 25.4 ± 4 µM | 24.1 ± 4.1 µM | 0.3 ± 0.2 µM | 0.3 µM | 67.8 ± 9.4% | Effect on cell viability (J774.A1 cells): had no effect on cell viability; fold induction at 50 µM (J774.A1 macrophages [2]; 50 μM compound, above response to vehicle (DMSO) control, Table 5 numbering, N.A. = inactive, read-out: FI (fold-increase of macrophage TNF-α production)): 50; Determined class of macrophage TNF-α inducing activity (J774.A1 macrophages [2]; experimentally determined class): Active; Effect of Boc-2 (FPR/FPRL1 antagonist) on compound-induced TNF-α production (J774.A1 macrophages [2]; pretreated 5 min with Boc 2 (40 μM), then 50 μM compound 24 hr): inhibited; Effect of WRW4 (FPRL1 antagonist) on compound-induced TNF-α production (J774.A1 macrophages [2]; pretreated 5 min with WRW4 (10 μM), then 50 μM compound 24 hr): inhibited; Effect of PTX on induced TNF-α production (J774.A1 macrophages [2]; pretreated 30 min with PTX (0.4 and 1 μg/ml), then Compound 50 μM or LPS 50 ng/ml for 12 hr): significantly inhibited; Effect of ActD or CHX on compound-induced TNF-α production (J774.A1 macrophages [2]; pretreated with ActD 1 μg/ml or CHX 5 μg/ml 30 min, then 50 μM compound 12 hr): completely inhibited; EC50 (FPRL1): 19.1 µM; TNF-α production in human monocyte-derived macrophages [8]: induced TNF-α production in a concentration-dependent manner; TNF-α production in THP-1 cells [9]: induced TNF-α production in a concentration-dependent manner; TNF-α production in murine peritoneal macrophages [10]: induced TNF-α production in a concentration-dependent manner; TNF-α production in MonoMac6 cells [11]: induced TNF-α production in a concentration-dependent manner
